The record followed here is patent US20090036422A1 (priority 2007, published 2009).

Structures can show the parent of a compound that is named as a salt.

As a reminder, the Kb is the equilibrium dissociation constant of an antagonist, usually derived from a functional assay. A higher Kb goes with lower antagonist affinity.

The target of the test is T1, human orexin-2 (hOX2) receptor (Homo sapiens, UniProt O43614).
T1 construct: expressed in transfected cells
T1 sequence (O43614 1-444): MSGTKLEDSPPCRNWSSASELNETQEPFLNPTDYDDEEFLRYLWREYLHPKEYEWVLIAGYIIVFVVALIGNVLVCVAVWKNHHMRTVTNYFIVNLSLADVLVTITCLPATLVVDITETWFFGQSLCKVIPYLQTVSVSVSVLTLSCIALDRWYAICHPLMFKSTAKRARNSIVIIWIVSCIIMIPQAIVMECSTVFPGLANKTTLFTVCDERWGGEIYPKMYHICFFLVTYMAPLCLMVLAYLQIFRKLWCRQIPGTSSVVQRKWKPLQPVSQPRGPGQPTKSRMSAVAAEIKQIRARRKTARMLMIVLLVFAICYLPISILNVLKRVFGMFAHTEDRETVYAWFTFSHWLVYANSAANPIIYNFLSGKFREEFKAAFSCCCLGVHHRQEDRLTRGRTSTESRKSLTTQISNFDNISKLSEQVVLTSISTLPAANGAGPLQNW
The test is described as follows: Intracellular Ca2+ mobilization assay (FLIPR), CHO(dHFr-) cells expressing hOX2, orexin-A at EC80 as agonist. In kind it is cell-based. The settings on record: Kb=IC50/(1+[A]/EC50); CHO(dHFr-)-OX2R cells, antagonist applied 25 min before orexin-A EC80. As to the method: Intracellular Ca^2+ Mobilization Assay
The Chinese Hamster Ovary (dHFr−) mutant cell line stably expressing human orexin-1 (hOX1) or human orexin-2 (hOX2) receptors were maintained in Dulbecco's Modified Eagle Medium (1×) with GlutaMax™ 1, 4500 mg/L D-Glucose and Sodium Pyruvate (Catalog No. 31966-021, Invitrogen, Carlsbad, Calif.), 5% dialyzed fetal calf serum (Catalog No. 26400-044), 100 μg/ml penicillin and 100 μg/ml streptomycin. The cells were seeded at 5×10^4 cells/well in the poly-D-lysine treated, 96-well, black/clear-bottomed plates (Catalog No. BD356640, BD Biosciences, Palo Alto, Calif.). 24 h later, the cells were loaded for 1 h at 37° C. with 4 μM Flou-4 acetoxymethyl ester (Catalog No. F-14202, Molecular Probes, Eugene, Oreg.) in FLIPR buffer (1×HBSS, 20 mM HEPES, 2.5 mM Probenecid). Hanks' Balanced Salt Solution (HBSS) (10×) (catalog No. 14065-049) and HEPES (1M) (catalog No. 15630-056) were purchased from Invitrogen, Carlsbad, Calif. Probenecid (250 mM) (catalog No. P8761) was from Sigma, Buchs, Switzerland. The cells were washed five times with FLIPR buffer to remove excess dye and intracellular calcium mobilization, [Ca^2+]i were measured using a Fluorometric Imaging Plate Reader (FLIPR-96, Molecular Devices, Menlo Park, Calif.) as described previously (Malherbe et al., Mol. Pharmacol., 64, 823-832, 2003). Orexin A (catalog No. 1455, Toris Cookson Ltd, Bristol, UK) was used as agonist. Orexin A (50 mM stock solution in DMSO) was diluted in FLIPR buffer +0.1% BSA. The EC50 and EC80 values of orexin-A were measured daily from standard agonist concentration-response curves in CHO(dHFr−) —OX1R and —OX2R cell lines. All compounds were dissolved in 100% DMSO. Inhibition curves were determined by addition of 11 concentrations (0.0001-10 μM) of inhibitory compounds and using EC80 value of orexin-A as agonist (a concentration which gave 80% of max agonist response, determined daily). The antagonists were applied 25 min (incubation at 37° C.) before the application of the agonist. Responses were measured as peak increase in fluorescence minus basal, normalized to the maximal stimulatory effect induced by EC80 value of orexin-A or orexin-B. Inhibition curves were fitted according to the Hill equation: y=100/(1+(x/IC50)^nH), where nH=slope factor using Excel-fit 4 software (Microsoft).
Kb values were calculated according to the following equation Kb=IC50/(1+[A]/EC50) where A is the concentration of agonist added which is very close to agonist EC80 value, and IC50 and EC50 values were derived from the antagonist inhibition and orexin-A or B agonist curves, respectively.

The compound `Cc1ccc(CCN(C(=O)C(NCCO)c2ccccc2)c2ccc(C)c(C)c2)cc1` (stereo not shown) [Example 106, N-(3,4-Dimethyl-phenyl)-2-(2-hydroxy-ethylamino)-2-phenyl-N-(2-p-tolyl-ethyl)-acetamide] had a Kb of 0.0071 µM.
On to `Cc1ccc(N(CCc2ccc(C(F)(F)F)c(F)c2F)C(=O)[C@@H](N)c2ccccc2)cc1C` [Example 197, (S)-2-Amino-N-[2-(2,3-difluoro-4-trifluoromethyl-phenyl)-ethyl]-N-(3,4-dimethyl-phenyl)-2-phenyl-acetamide hydrochloride], for which the Kb amounted to 0.0067 µM. The Kb values of the last two compounds are within 1.5-fold of each other.
In turn, `CCOc1ccc(N(CCc2ccc(C(F)(F)F)cc2)C(=O)[C@@H](N)c2ccccc2)cc1OCC` [Example 140, (S)-2-Amino-N-(3,4-diethoxy-phenyl)-2-phenyl-N-[2-(4-trifluoromethyl-phenyl)-ethyl]-acetamide] showed a Kb of 0.0127 µM. Compared with the last compound, the Kb is about 1.9-fold higher.
As for `COc1ccccc1C(N)C(=O)N(CCc1ccc(C(F)(F)F)cc1)c1ccc2c(c1)OCO2` (stereo not shown) [Example 41], the Kb is 0.0505 µM.
Regarding `Cc1ccc(N(CCc2ccc(OC(F)(F)F)cc2)C(=O)[C@@H](N)c2ccccc2)cc1C` [Example 176, (S)-2-Amino-N-(3,4-dimethyl-phenyl)-2-phenyl-N-[2-(4-trifluoromethoxy-phenyl)-ethyl]-acetamide], the Kb was 0.0505 µM. This lies in the double-digit nanomolar range.
Regarding `Cc1ccc(N(CCc2ccc(C(F)(F)F)c(F)c2)C(=O)[C@@H](N)c2ccccc2)cc1C` [Example 186, (S)-2-Amino-N-(3,4-dimethyl-phenyl)-N-[2-(3-fluoro-4-trifluoromethyl-phenyl)-ethyl]-2-phenyl-acetamide hydrochloride], the Kb is 0.0156 µM.
In turn, `Cc1ccc(CCN(C(=O)C(NC(C)(C)CO)c2ccccc2)c2ccc(C)c(C)c2)cc1` (stereo not shown) [Example 132, N-(3,4-Dimethyl-phenyl)-2-(2-hydroxy-1,1-dimethyl-ethylamino)-2-phenyl-N-(2-p-tolyl-ethyl)-acetamide] showed a Kb of 0.0642 µM.
`COc1ccc(Cl)c(N(CCc2ccc(C(F)(F)F)cc2)C(=O)C(N)c2ccccc2)c1` (stereo not shown) [Example 110, 2-Amino-N-(2-chloro-5-methoxy-phenyl)-2-phenyl-N-[2-(4-trifluoromethyl-phenyl)-ethyl]-acetamide]: the Kb is 0.0335 µM.
The value for `Cc1ccc(N(CCc2ccc(Cl)cc2F)C(=O)[C@@H](N)c2ccccc2)cc1C` [Example 192, (S)-2-Amino-N-[2-(4-chloro-2-fluoro-phenyl)-ethyl]-N-(3,4-dimethyl-phenyl)-2-phenyl-acetamide; hydrochloride] was 0.0148 µM.
Next, `CN[C@H](C(=O)N(CCc1ccc(C(F)(F)F)cc1)c1ccc(OC)c(OC)c1)c1ccccc1OC` [Example 101, (S)—N-(3,4-Dimethoxy-phenyl)-2-(2-methoxy-phenyl)-2-methylamino-N-[2-(4-trifluoromethyl-phenyl)-ethyl]-acetamide hydrochloride]: 0.0133 µM; `Cc1ccc(N(CCc2cc(Cl)ccc2Cl)C(=O)[C@@H](N)c2ccccc2)cc1C` [Example 203, (S)-2-Amino-N-[2-(2,5-dichloro-phenyl)-ethyl]-N-(3,4-dimethyl-phenyl)-2-phenyl-acetamide hydrochloride]: 0.0996 µM; `Cc1ccc(N(CCc2cccc(O)c2)C(=O)[C@@H](N)c2ccccc2)cc1C` [Example 206, (S)-2-Amino-N-(3,4-dimethyl-phenyl)-N-[2-(3-hydroxy-phenyl)-ethyl]-2-phenyl-acetamide hydrochloride]: 0.0469 µM.
The compound `CCOc1ccc(N(CCc2ccc(C(F)(F)F)cc2)C(=O)[C@@H](N)c2ccc(F)cc2)cc1Cl` [Example 165, (S)-2-Amino-N-(3-chloro-4-ethoxy-phenyl)-2-(4-fluoro-phenyl)-N-[2-(4-trifluoromethyl-phenyl)-ethyl]-acetamide] yielded a Kb of 0.0673 µM.
`COc1ccc(N(CCc2ccc(C(F)(F)F)cc2)C(=O)C(O)c2ccccc2OC)cc1OC` (stereo not shown) [Example 17, N-(3,4-dimethoxyphenyl)-2-hydroxy-2-(2-methoxyphenyl)-N-{2-[4-(trifluoromethyl)phenyl]ethyl}acetamide] showed a Kb of 0.0165 µM.
Next, `Cc1ccc(N(CCc2ccc(Cl)c(F)c2)C(=O)[C@@H](N)c2ccccc2)cc1C` [Example 200, (S)-2-Amino-N-[2-(4-chloro-3-fluoro-phenyl)-ethyl]-N-(3,4-dimethyl-phenyl)-2-phenyl-acetamide hydrochloride]: 0.0143 µM; `COc1ccc(N(CCc2ccc(C(F)(F)F)cc2)C(=O)C(O)c2ccc(F)cc2)cc1OC` (stereo not shown) [Example 26, N-(3,4-dimethoxyphenyl)-2-(4-fluorophenyl)-2-hydroxy-N-{2-[4-(trifluoromethyl)phenyl]ethyl}acetamide]: 0.0592 µM.
`Cc1ccc(N(CCc2ccccc2F)C(=O)[C@@H](N)c2ccccc2)cc1C` [Example 180, (S)-2-Amino-N-(3,4-dimethyl-phenyl)-N-[2-(2-fluoro-phenyl)-ethyl]-2-phenyl-acetamide hydrochloride] displayed a Kb of 0.036 µM.
The value for `COc1ccc(N(CCc2ccc(C(F)(F)F)cc2)C(=O)[C@@H](N)c2ccccc2OC)cc1OC` [Example 103, (S)-2-Amino-N-(3,4-dimethoxy-phenyl)-2-(2-methoxy-phenyl)-N-[2-(4-trifluoromethyl-phenyl)-ethyl]-acetamide hydrochloride] was 0.0053 µM; that for `Cc1ccc(N(CCc2cccc(Cl)c2F)C(=O)[C@@H](N)c2ccccc2)cc1C` [Example 204, (S)-2-Amino-N-[2-(3-chloro-2-fluoro-phenyl)-ethyl]-N-(3,4-dimethyl-phenyl)-2-phenyl-acetamide hydrochloride] was 0.0178 µM.
`Cc1ccc(CCN(C(=O)C(NCC2OCCO2)c2ccccc2)c2ccc(C)c(C)c2)cc1` (stereo not shown) [Example 133, N-(3,4-Dimethyl-phenyl)-2-[([1,3]dioxolan-2-ylmethyl)-amino]-2-phenyl-N-(2-p-tolyl-ethyl)-acetamide] gave a Kb of 0.007 µM.
For the compound `Cc1ccc(N(CCc2c(F)cc(C(F)(F)F)c(F)c2F)C(=O)[C@@H](N)c2ccccc2)cc1C` [Example 202, (S)-2-Amino-N-(3,4-dimethyl-phenyl)-2-phenyl-N-[2-(2,3,6-trifluoro-4-trifluoromethyl-phenyl)-ethyl]-acetamide hydrochloride], the Kb was determined as 0.0015 µM.
The value for `Cc1ccc(N(CCc2ccc(C(F)(F)F)cc2)C(=O)C(N)c2ccccc2)cc1` (stereo not shown) [Example 69, 2-Amino-2-phenyl-N-p-tolyl-N-[2-(4-trifluoromethyl-phenyl)-ethyl]-acetamide] was 0.0828 µM; that for `CCOc1ccc(N(CCc2ccc(C(F)(F)F)cc2)C(=O)C(N)c2ccccc2)cc1OCC` (stereo not shown) [Example 68, 2-Amino-N-(3,4-diethoxy-phenyl)-2-phenyl-N-[2-(4-trifluoromethyl-phenyl)-ethyl]-acetamide] was 0.0117 µM; that for `N[C@H](C(=O)N(CCc1ccc(C(F)(F)F)cc1)c1ccc(OC(F)F)c(Cl)c1)c1ccc(F)cc1` [Example 163, (S)-2-Amino-N-(3-chloro-4-difluoromethoxy-phenyl)-2-(4-fluoro-phenyl)-N-[2-(4-trifluoromethyl-phenyl)-ethyl]-acetamide] was 0.0778 µM.
Compound `Cc1ccc(CCN(C(=O)[C@@H](N)c2ccc(F)cc2)c2ccc(C)c(C)c2)cc1` [Example 144, (S)-2-Amino-N-(3,4-dimethyl-phenyl)-2-(4-fluoro-phenyl)-N-(2-p-tolyl-ethyl)-acetamide] gave a Kb of 0.0174 µM.
